The values below come from patent US20060241098A1, “Pesticidal n-substituted azacyclic derivatives” (priority 2003, published 2006).

The subject of test [1] is cotton aphid. The test can be described thus: Residual insecticidal activity test on sprayed cotton plants. It counts as in vivo, Aphis gossypii. The conditions noted are these: Aphis gossypii, Table 3, 72 h exposure. The protocol:
Certain N-Substituted azacyclic compounds where the N-substituent is O^− (the N-oxides) of the present invention were also tested to determine their residual insecticidal activity. These tests were conducted in the following manner:
For each rate of application of test compound, a 15 mL aliquot of test solution was prepared. Sufficient test compound was dissolved in 1.5 mL of acetone to provide an application rate as high as 1200 grams/Ha. Each solution was then added to 13.5 mL of water containing 300 ppm of a surfactant. There were four replicates for each rate of application of test compound, and all tests included a known chemical standard as well as a standard of water and untreated checks.
A maximum of 14 appropriately sized cotton plants for each rate of application and replicate were arranged in a 28 pot plastic flat and sprayed with the 15 mL sample of test compound using an traveling boom sprayer equipped with a cone spray tip at a rate of 30 gallons/acre under a pressure of 40-44 psi. The untreated checks were sprayed first, followed by the test compounds and standards, all in order of lowest to highest rates of application. Once the spraying was complete, the test plants were allowed to air-dry on the conveyor on which they were sprayed.
In the test to determine residual activity (0 Day Residual) one set of dry plants was infested with leaf cuttings covered with about 25 cotton aphids taken from cotton plants in an aphid colony. The cotton plants were then maintained in a greenhouse or in an atmosphere of simulated direct sunlight for 72 hours after which time cotton aphid mortality was determined.
A second set of dry test plants treated with test compounds were maintained for three days (3 Day Residual), then infested with cotton aphid. The infested plants were maintained and evaluated for cotton aphid mortality after 72 hours as set forth above. Other residual activity periods are optionally evaluated also, for example a 5 day residual.
At the end of the 72 hour exposure period the numbers of live insects were counted a percent mortality of aphids was calculated based on the number of live insects present and the number that were infested onto the plants.

For test [2], the system named is cotton aphid (Aphis gossypii). Description: Translaminar insecticidal activity test on cotton leaves, N-oxides versus free amines. The class given is in vivo. The following applies: Aphis gossypii. Here is the method:
Certain N-Substituted azacyclic compounds where the N-substituent is O^− (the N-oxides) of the present invention were tested to determine their translaminar characteristics as evidenced by activity against cotton aphid (Aphis gossypii) in comparison with their corresponding free amine derivatives. These tests were conducted in the following manner: For each compound tested, one cotton plant with two mature leaves was selected. On the top of one of the leaves a sticky material used for trapping insects was applied using a stamp of about 2.5 centimeters in diameter. The process was repeated on the bottom of the second leaf of the cotton plant. A solution of 500 ppm of test compound (dissolved in 1:1 acetone and water containing a small amount of surfactant) was then applied to the entire side of each leaf opposite the side stamped with the sticky material using a saturated cotton swab. Upon completion of the application of the test compounds, the cotton plants were maintained in a growth chamber for about 18 hours. After this time the leaves of the test plant were infested with a known number of cotton aphids by placing an infested leaf cutting from the cotton aphid colony directly over the sticky material on each leaf. The leaf cutting on the bottom of a leaf of the test plant was secured to the leaf with a pin. The treated and infested cotton plants were then maintained in a chamber, during which time they were evaluated at daily intervals of from one to up to eight days. A test compound was termed active (A) if the top and bottom of the leaves of the test plant were mostly free of aphids (80% to 100%) when compared to untreated controls. […]

[3] abbreviates: 3 day residual, greenhouse environment, read-out: Percent Mortality 3 DAT (greenhouse).
Where [4] appears, read: 3 day residual, simulated sunlight environment, read-out: Percent Mortality 3 DAT (simulated sunlight).
[5] abbreviates: infested 0 days after treatment, read-out: Percent Mortality 0 DAT.

Read-outs that look alike come from different tables or passages of the source. Bounds are passed on as bounds.

As for `Cc1noc(C2CN3CCC2C3)n1` (stereo not drawn) [Compound B, 5-(4-azabicyclo[2.2.1]hept-2-yl)-3-methyl-1,2,4-oxadiazole, reference compound], the mortality at 224 g/ha is 41% in test [1] (setting [3]), 21% in test [1] (setting [4]) and 100% in test [1] (setting [5]). For the same compound, the mortality at 560 g/ha in test [1] (setting [3]) is 84%; in test [1] (setting [4]), 49%; in test [1] (setting [5]) it was 100%. The mortality at 1120 g/ha is 99% in test [1] (setting [3]), 95% in test [1] (setting [4]) and 100% in test [1] (setting [5]). Besides, the mortality at 500 ppm in test [2] (24 h, read-out: Percent Mortality at Day After treatment (DAT), 1 DAT) is < 50%; in test [2] (48 h, read-out: Percent Mortality at Day After treatment (DAT), 2 DAT) it was < 50%; in test [2] (72 h, read-out: Percent Mortality at Day After treatment (DAT), 3 DAT), < 50%; in test [2] (144 h, read-out: Percent Mortality at Day After treatment (DAT), 6 DAT) it was < 50%; in test [2] (168 h, read-out: Percent Mortality at Day After treatment (DAT), 7 DAT) it was < 50%; in test [2] (168 h, read-out: mortality throughout the seven-day test period), < 50%.
